Measured values from patent US20240299401A1, “NOVEL REDOX-BASED THERAPEUTIC APPROACH FOR TREATMENT OF CANCER” (THE PENN STATE RESEARCH FOUNDATION, priority 2020, published 2024).
Read-outs that look alike come from different tables or passages of the source.

Tests used:
A549 = experiment: WST-1 cytotoxicity, A549; type: cell-based, human; conditions: Homo sapiens, A549, 24 h, read-out: Calculated IC50 values
Experimental: (§1) Two different cytotoxicity/proliferation kit was used in this study i.e., WST-1 proliferation assay kit (Roche, Indianapolis, IN, USA; Cat #28620000) and Cell-titer Glo-luminescent cell viability assay (Promega, WI, USA; Cat #0000348721). Majority of the cell proliferation/cytotoxicity experiments were performed with WST-1 assay. Briefly, cells were seeded at the indicated density for 24 h in 96 well plate, media was replaced, and subsequently treated with the test compounds at different doses. […] Cell titer Glo-assay was additionally performed in certain cases to validate the results from WST-1 assay as outlined above following manufacturer's instructions and luminescence was measured using a FLx100 Luminometer (CLARIOSTAR®, Ortenbery, Germany). […] Other proliferation/cytotoxicity assays were also carried out i.e., Quant™-iT PicoGreen ds DNA assay kit (Thermo Scientific, Rockwood, TN, USA, P7589) following manufacturer's instructions, Trypan blue (Sigma, Ayrshire, UK, T8154) and acid phosphatase assay for validation of cytotoxicity/proliferation data from other assays.

H661 = experiment: WST-1 cytotoxicity, H661; type: cell-based, human; conditions: Homo sapiens
Experimental: as §1

H1299 = experiment: WST-1 cytotoxicity, H1299; type: cell-based, human; conditions: Homo sapiens
Experimental: as §1

U1906E = experiment: WST-1 cytotoxicity, U1906E; type: cell-based; conditions: Homo sapiens, 24 h, read-out: Calculated IC50 values
Experimental: as §1

U1906L = experiment: WST-1 cytotoxicity, U1906L; type: cell-based; conditions: Homo sapiens, 24 h, read-out: Calculated IC50 values
Experimental: as §1

NB4 = experiment: WST-1 cytotoxicity, NB4; type: cell-based, human; conditions: Homo sapiens
Experimental: as §1

HL60 = experiment: WST-1 cytotoxicity and synergy analysis, HL60; type: cell-based, human; conditions: Homo sapiens
Experimental: as §1

THP-1 = experiment: WST-1 cytotoxicity, THP-1; type: cell-based; conditions: Homo sapiens, THP-1, 24 h, read-out: Calculated IC50 values
Experimental: as §1

Kasumi 6 = experiment: WST-1 cytotoxicity, Kasumi 6; type: cell-based; conditions: Homo sapiens, alone, 24 h, read-out: Calculated IC50 values
Experimental: as §1

AML193 = experiment: WST-1 cytotoxicity, AML193; type: cell-based; conditions: Homo sapiens, 24 h, read-out: Calculated IC50 values
Experimental: as §1

HepG2 = experiment: WST-1 cytotoxicity, HepG2; type: cell-based; conditions: Homo sapiens, HepG2, 24 h, read-out: Calculated IC50 values
Hep3B = experiment: WST-1 cytotoxicity, Hep3B; type: cell-based; conditions: Homo sapiens, 24 h, read-out: Calculated IC50 values
Experimental: as §1

HUH7 = experiment: WST-1 cytotoxicity, HUH7; type: cell-based; conditions: Homo sapiens, Huh-7, 24 h, read-out: Calculated IC50 values
Experimental: as §1

SHSY5-SY = experiment: WST-1 cytotoxicity, SHSY5-SY; type: cell-based; conditions: Homo sapiens, 24 h, read-out: Calculated IC50 values
Experimental: as §1

SNB-19 = experiment: WST-1 cytotoxicity, SNB-19; type: cell-based; conditions: Homo sapiens, SNB-19, 24 h, read-out: Calculated IC50 values
Experimental: as §1

8-MGBA = experiment: WST-1 cytotoxicity, 8-MGBA; type: cell-based; conditions: Homo sapiens, 8-MG-BA, 24 h, read-out: Calculated IC50 values
Experimental: as §1

LS174T = experiment: WST-1 cytotoxicity, LS174T; type: cell-based; conditions: Homo sapiens, 24 h, read-out: Calculated IC50 values
Experimental: as §1

HeLa = experiment: WST-1 cytotoxicity, HeLa; type: cell-based; conditions: Homo sapiens, 24 h, read-out: Calculated IC50 values
Experimental: as §1

MCF-7 = experiment: WST-1 cytotoxicity, MCF-7; type: cell-based, human; conditions: Homo sapiens
Experimental: as §1

PANC-1 = experiment: WST-1 cytotoxicity, PANC-1; type: cell-based; conditions: Homo sapiens, PANC-1, 24 h, read-out: Calculated IC50 values
Experimental: as §1

A375 = experiment: WST-1 cytotoxicity, A375; type: cell-based; conditions: Homo sapiens, A-375, 24 h, read-out: Calculated IC50 values
Experimental: as §1

IGROV1 = experiment: WST-1 cytotoxicity, IGROV1; type: cell-based, human; conditions: Homo sapiens, IGROV-1, 24 h, read-out: Calculated IC50 values
Experimental: as §1

OV2008 = experiment: WST-1 cytotoxicity, OV2008; type: cell-based; conditions: Homo sapiens, 24 h, read-out: Calculated IC50 values
Experimental: as §1

[1] = Toxicity in black mice (C57BL/6), 3 weeks; type: in vivo; conditions: sodium selenite or selenocystine 3 mg/kg, alone or with diphenyl diselenide 50 and 100 mg/kg
Experimental: Black mice (C57BJ/6) mice were treated perorally every second day with either vehicle (canola oil) or diphenyl diselenide at two different dose levels (50 and 100 mg/kg body weight) for 3 weeks. Final body weight and weight of the major organs were measured at necropsy.
Black mice (C57BJ/6) mice were treated with vehicle (PBS i.p. and canola oil p.o.), sodium selenite (3 mg/kg body weight), selenocystine (3 mg/kg body weight), or in combinations with two different doses of diphenyl diselenide (50 and 100 mg/kg body weight) for 3 weeks. Final body weight and weight of the major organs were measured at necropsy.

[2] = cited from earlier work
[3] = system: Primary peripheral blood mononuclear cells; experiment: WST-1 cytotoxicity, primary PBMCs; conditions: Homo sapiens, PBMC, 24 h, read-out: Calculated IC50 values
[4] = system: Primary Human hepatocytes; experiment: WST-1 cytotoxicity, primary human hepatocytes; conditions: Hepatocyte, 24 h, read-out: Calculated IC50 values
[5] = at 10.2 mg/m2 intravenously, human

Molecule `O=[Se](O)O` [Sodium selenite, sodium selenite] has an IC50 (A549) of 2.86 µM, an IC50 (H661; NCI-H661, 24 h, read-out: Calculated IC50 values) of 53.1 µM and an IC50 (H661; NCI-H661, read-out: Calculated IC50 values of sodium selenite) of 53.1 µM. For the same molecule, the IC50 (H1299; NCI-H1299, 24 h, read-out: Calculated IC50 values) was 5.25 µM, the IC50 (H1299; NCI-H1299, read-out: Calculated IC50 values of sodium selenite) was 5.25 µM and the IC50 (U1906E) was 2.44 µM. For the same molecule, the IC50 (U1906L) was 1.58 µM, the IC50 (NB4; NB-4, 24 h, read-out: Calculated IC50 values) was 24.6 µM and the IC50 (NB4; NB-4, read-out: Calculated IC50 values of sodium selenite) was 24.6 µM. For the same molecule, the IC50 (HL60; HL-60, 24 h, read-out: Calculated IC50 values) was 16 µM, the IC50 (HL60; HL-60, read-out: Calculated IC50 values of sodium selenite) was 16 µM and the IC50 (THP-1) was 0.79 µM. The IC50 (Kasumi 6) was 25.7 µM, the IC50 (AML193) was 6.78 µM and the IC50 (HepG2) was 7.58 µM. It also gave an IC50 (Hep3B) of 1.65 µM, an IC50 (HUH7) of 3.53 µM and an IC50 (SHSY5-SY) of 40.3 µM. For the same molecule, the IC50 (SNB-19) was 5.35 µM, the IC50 (8-MGBA) was 4.29 µM and the IC50 (LS174T) was 3.6 µM. It also gave an IC50 (HeLa) of 0.64 µM, an IC50 (MCF-7; MCF7, 24 h, read-out: Calculated IC50 values) of 8.55 µM and an IC50 (MCF-7; MCF7, read-out: Calculated IC50 values of sodium selenite) of 8.55 µM. The IC50 (PANC-1) was 7.87 µM, the IC50 (A375) was 6.14 µM and the IC50 (IGROV1) was 5.08 µM. The IC50 (OV2008) was 3.7 µM, the “toxic effects (body and organ weight at necropsy)” value [1] was “No demonstrated toxic effects could be observed” and the dose-limiting toxicity [2, 5] was “No dose-limiting toxicity”. For the same molecule, the “peak plasma total selenium concentrations” value [2, 5] was 15.0 to 23.0 µM, the “plasma concentration (sodium selenite equivalent) that can be reached” value ([2]; high dose intravenous administration, earlier clinical studies) was greater than 20 µM and the Maximum-tolerated dose levels ([2]; intravenously administered, human) was 10.2 mg/m2. For the same molecule, the human tolerance limit ([2]; intravenously for two weeks, phase I trial NCT01959438) was 10 mg sodium selenite/m^2 surface area/day, the IC50 [3] was 35 µM and the IC50 [4] was 202 µM.
